The results in this text go back to patent US10485236B2, “Triazole derivatives, intermediates thereof and their use as fungicides” (Bayer CropScience Aktiengesellschaft, priority 2015, dated 2019).

A short description of series [1]: Measurement of LogP values by HPLC on reversed phase columns (EEC directive 79/831 Annex V.A8). Particulars: reversed phase HPLC column, method [a]; compounds of formula (VII), Table 4. In kind it is physicochemical. The essentials:
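Calibrated with straight-chain alkan-2-ones (3–16 carbons) of known LogP, using retention times with linear interpolation between successive alkanones. Where one method gives several LogP values, all are listed, joined by "+". Lambda-max taken from UV spectra (200–400 nm) at chromatographic peak maxima.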

For a further series, the system named is Puccinia recondita. Put plainly: Example B: in vivo preventive test on Puccinia recondita (brown rust on wheat). Particulars: 264 h, 500 ppm of active ingredient, wheat plants, preventive spray, evaluated 11 days after inoculation, read-out: efficacy.
The next series concerns Septoria tritici. In words: Example C: in vivo preventive test on Septoria tritici (leaf spot on wheat). Particulars: Zymoseptoria tritici, 576 h; 500 ppm of active ingredient; wheat plants, preventive spray; evaluated 24 days after inoculation; read-out: efficacy. The protocol: Example C: In Vivo Preventive Test on Septoria tritici (Leaf Spot on Wheat) [table] The active ingredients are made soluble and homogenized in a mixture of Dimethyl sulfoxide/Acetone//Tween® 80 and then diluted in water to the desired concentration. The young plants of wheat are treated by spraying the active ingredient prepared as described above. Control plants are treated only with an aqueous solution of Acetone/Dimethyl sulfoxide/Tween® 80. After 24 hours, the plants are contaminated by spraying the leaves with an aqueous suspension of Septoria tritici spores. The contaminated wheat plants are incubated for 72 hours at 18° C. and at 100% relative humidity and then for 21 days at 20° C. and at 90% relative humidity. The test is evaluated 24 days after the inoculation. 0% means an efficacy which corresponds to that of the control plants while an efficacy of 100% means that no disease is observed.

For another series, the system named is Sphaerotheca fuliginea. In words: Example D: in vivo preventive test on Sphaerotheca fuliginea (powdery mildew on cucurbits). Particulars: Podosphaera fuliginea, 360 h; 500 ppm of active ingredient; gherkin plants, preventive spray; evaluated 15 days after inoculation; read-out: efficacy.
The test system of the next series is Uromyces appendiculatus. In words: Example E: in vivo preventive test on Uromyces appendiculatus (bean rust). Particulars: 264 h, 500 ppm of active ingredient, bean plants, preventive spray, evaluated 11 days after inoculation, read-out: efficacy.
Another series concerns Phakopsora pachyrhizi. In words: Example G: in vivo preventive test on Phakopsora test (soybeans). Particulars: 168 h, 100 ppm of active ingredient, preventive spray, evaluated 7 days after inoculation, read-out: efficacy. The protocol: Example G: In Vivo Preventive Test on Phakopsora Test (Soybeans) [table] To produce a suitable preparation of active compound, 1 part by weight of active compound is mixed with the stated amounts of solvent and emulsifier, and the concentrate is diluted with water to the desired concentration. To test for preventive activity, young plants are sprayed with the preparation of active compound at the stated rate of application. After the spray coating has dried on, the plants are inoculated with an aqueous spore suspension of the causal agent of soybean rust (Phakopsora pachyrhizi) and stay for 24 h without light in an incubation cabinet at approximately 24° C. and a relative atmospheric humidity of 95%. The plants remain in the incubation cabinet at approximately 24° C. and a relative atmospheric humidity of approximately 80% and a day/night interval of 12 h. The test is evaluated 7 days after the inoculation. 0% means an efficacy which corresponds to that of the untreated control, while an efficacy of 100% means that no disease is observed.

In another series the test system is Venturia inaequalis. Put plainly: Example H: in vivo preventive test on Venturia test (apples). Particulars: 240 h, 100 ppm of active ingredient, preventive spray, evaluated 10 days after inoculation, read-out: efficacy. The protocol: Example H: In Vivo Preventive Test on Venturia Test (Apples) [table] To produce a suitable preparation of active compound, 1 part by weight of active compound is mixed with the stated amounts of solvent and emulsifier, and the concentrate is diluted with water to the desired concentration. To test for preventive activity, young plants are sprayed with the preparation of active compound at the stated rate of application. After the spray coating has dried on, the plants are inoculated with an aqueous conidia suspension of the causal agent of apple scab (Venturia inaequalis) and then remain for 1 day in an incubation cabinet at approximately 20° C. and a relative atmospheric humidity of 100%. The plants are then placed in a greenhouse at approximately 21° C. and a relative atmospheric humidity of approximately 90%. The test is evaluated 10 days after the inoculation. 0% means an efficacy which corresponds to that of the untreated control, while an efficacy of 100% means that no disease is observed.

Usually chromatographic logP stands for a lipophilicity value derived from retention on a column. The low end stands for lower lipophilicity, the high end for higher lipophilicity. In series [1], `O=C(Cn1cncn1)c1ccc(Oc2ccc(Cl)cc2)nc1C(F)(F)F` [VII.01, 1-[6-(4-chlorophenoxy)-2-(trifluoromethyl)-3-pyridyl]-2-(1,2,4-triazol-1-yl)ethanone] came in with a chromatographic logP of 2.92. In addition, the pest or weed control at 500 ppm is 90 to 100% with Puccinia recondita, 80 to 89% with Septoria tritici, 90 to 100% with Sphaerotheca fuliginea and 90 to 100% in the series on Uromyces appendiculatus. The pest or weed control at 100 ppm in the series with Phakopsora pachyrhizi lay within 80 to 89%; in the series with Venturia inaequalis, 90 to 100%.
